Counter-ions that a name gives are not always drawn.
Tested on: Endogenous Huntingtin Protein (HTT)
Experiment: Endogenous Huntingtin Protein Assay (ELISA-based MSD electrochemiluminescence)
Type: cell-based
Details: Table 1
Procedure, shortened: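 HTT protein in lysates was measured by electrochemiluminescence on the MSD platform. Rabbit monoclonal 5656S followed by SULFO-TAG anti-rabbit antibody served for detection after overnight 4 °C capture with MAB2166 or the polyglutamine-directed MW1 antibody.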

| IC50 [µM] | Compound |
| --- | --- |
| 3 to 33 | O=c1cc(-c2ccc3nccn3c2)nc2ccc(N3CCNCC3)cn12 [compound 108, 2-(imidazo[1,2-a]pyridin-6-yl)-7-(piperazin-1-yl)-4H-pyrido[1,2-a]pyrimidin-4-one] |
| 3 to 33 | Cc1cn2cc(-c3cc(=O)n4cc(C5CCN(C)CC5)ncc4n3)cc(C)c2n1 [compound 592, 2-(2,8-dimethylimidazo[1,2-a]pyridin-6-yl)-7-(1-methylpiperidin-4-yl)-4H-pyrazino[1,2-a]pyrimidin-4-one] |
| 3 to 33 | Cc1cn2ccc(-c3cc(=O)n4cc(N5CCN(C)CC5)ccc4n3)cc2n1 [compound 557, 2-(2-methylimidazo[1,2-a]pyridin-7-yl)-7-(4-methylpiperazin-1-yl)-4H-pyrido[1,2-a]pyrimidin-4-one] |
| 3 to 33 | Cc1cn2nc(-c3cc(=O)n4cc(N5CCC(NCCO)CC5)cc(C)c4n3)cc2c(C)n1 [compound 609, 2-(4,6-dimethylpyrazolo[1,5-a]pyrazin-2-yl)-7-{4-[(2-hydroxyethyl)amino]piperidin-1-yl}-9-methyl-4H-pyrido[1,2-a]pyrimidin-4-one] |
| 3 to 33 | Cc1cn2cc(-c3ccc4nc(C5CCN(C(C)C)CC5)cc(=O)n4c3)ccc2n1 [compound 461, 7-(2-methylimidazo[1,2-a]pyridin-6-yl)-2-[1-(propan-2-yl)piperidin-4-yl]-4H-pyrido[1,2-a]pyrimidin-4-one] |
| 0.1 to 0.5 | Cc1cn2nc(-c3cc(=O)n4cc(C5CCNCC5)ccc4n3)cc2c(C)n1 [compound 452, 2-(4,6-dimethylpyrazolo[1,5-a]pyrazin-2-yl)-7-(piperidin-4-yl)-4H-pyrido[1,2-a]pyrimidin-4-one] |
| 3 to 33 | Cc1cn2nc(-c3cc(=O)n4cc(N5CCNC(C(F)(F)F)C5)ccc4n3)cc2c(C)n1 (stereo not shown) [compound 844, 2-(4,6-dimethylpyrazolo[1,5-a]pyrazin-2-yl)-7-[3-(trifluoromethyl)piperazin-1-yl]-4H-pyrido[1,2-a]pyrimidin-4-one] |
| < 0.1 | Cc1cn2cc(-c3cc(=O)n4cc(C5CCNCC5)nc(C)c4n3)cc(F)c2n1 [compound 875, 2-(8-fluoro-2-methylimidazo[1,2-a]pyridin-6-yl)-9-methyl-7-(piperidin-4-yl)-4H-pyrazino[1,2-a]pyrimidin-4-one hydrochloride (1:2)] |
| 3 to 33 | COc1cnc(-c2cc(=O)n3cc(N4CCNCC4)ccc3n2)cc1OC [compound 199, 2-(4,5-dimethoxypyridin-2-yl)-7-(piperazin-1-yl)-4H-pyrido[1,2-a]pyrimidin-4-one] |
| 0.5 to 1 | Cc1cc(N2CCNCC2)cn2c(=O)cc(-c3ccc4nn(C)cc4c3)nc12 [compound 754, 9-methyl-2-(2-methyl-2H-indazol-5-yl)-7-(piperazin-1-yl)-4H-pyrido[1,2-a]pyrimidin-4-one] |
| < 0.1 | CCN1CCC(c2cc(C)c3nc(-c4ccc5nn(C)cc5c4)cc(=O)n3c2)CC1 [compound 719, 7-(1-ethylpiperidin-4-yl)-9-methyl-2-(2-methyl-2H-indazol-5-yl)-4H-pyrido[1,2-a]pyrimidin-4-one] |
| 3 to 33 | O=c1cc(-c2cnc3[nH]ccc3c2)nc2ccc(N3CCNCC3)cn12 [compound 128, 7-(piperazin-1-yl)-2-(1H-pyrrolo[2,3-b]pyridin-5-yl)-4H-pyrido[1,2-a]pyrimidin-4-one] |
| 1 to 3 | C[C@H]1CN(c2ccc3nc(-c4ccc5nn(C)cc5c4)cc(=O)n3c2)CCN1 [compound 138, 2-(2-methyl-2H-indazol-5-yl)-7-[(3S)-3-methylpiperazin-1-yl]-4H-pyrido[1,2-a]pyrimidin-4-one] |
| 3 to 33 | Cc1cc(C2CC(C)(C)NC(C)(C)C2)cn2c(=O)cc(-c3ccc4nn(C)cc4c3)nc12 [compound 867, 9-methyl-2-(2-methyl-2H-indazol-5-yl)-7-(2,2,6,6-tetramethylpiperidin-4-yl)-4H-pyrido[1,2-a]pyrimidin-4-one] |
| 3 to 33 | CCc1nc(C)cn2nc(-c3cc(=O)n4cc(N5CCC(N(C)C)CC5)ccc4n3)cc12 [compound 550, 7-[4-(dimethylamino)piperidin-1-yl]-2-(4-ethyl-6-methylpyrazolo[1,5-a]pyrazin-2-yl)-4H-pyrido[1,2-a]pyrimidin-4-one] |
| 3 to 33 | Cc1cn2cc(-c3cc(=O)n4cc(N5CCN(C)CC5)ccc4n3)cc(CO)c2n1 [compound 677, 2-[8-(hydroxymethyl)-2-methylimidazo[1,2-a]pyridin-6-yl]-7-(4-methylpiperazin-1-yl)-4H-pyrido[1,2-a]pyrimidin-4-one] |
| 1 to 3 | CCN1CCC(c2ccc3nc(-c4ccc5nn(C)cc5c4)cc(=O)n3c2)CC1 [compound 612, 7-(1-ethylpiperidin-4-yl)-2-(2-methyl-2H-indazol-5-yl)-4H-pyrido[1,2-a]pyrimidin-4-one] |
| 0.1 to 0.5 | Cc1cn2cc(-c3cc(=O)n4cc(N5CCNCC5)ccc4n3)cc(F)c2n1 [compound 209, 2-(8-fluoro-2-methylimidazo[1,2-a]pyridin-6-yl)-7-(piperazin-1-yl)-4H-pyrido[1,2-a]pyrimidin-4-one] |
| 3 to 33 | CCCc1nc(C)cn2nc(-c3cc(=O)n4cc(N5CCN[C@H](C)C5)ccc4n3)cc12 [compound 727, 7-[(3R)-3-methylpiperazin-1-yl]-2-(6-methyl-4-propylpyrazolo[1,5-a]pyrazin-2-yl)-4H-pyrido[1,2-a]pyrimidin-4-one] |
| 1 to 3 | CCc1nc(C)cn2nc(-c3cc(=O)n4cc(N5CCN[C@@H](C)C5)ccc4n3)cc12 [compound 635, 2-(4-ethyl-6-methylpyrazolo[1,5-a]pyrazin-2-yl)-7-[(3S)-3-methylpiperazin-1-yl]-4H-pyrido[1,2-a]pyrimidin-4-one] |
| 3 to 33 | CCc1nc(C)cn2cc(-c3cc(=O)n4cc(N5CCCNCC5)ccc4n3)cc12 [compound 749, 7-(1,4-diazepan-1-yl)-2-(1-ethyl-3-methylpyrrolo[1,2-a]pyrazin-7-yl)-4H-pyrido[1,2-a]pyrimidin-4-one] |
| 3 to 33 | CCN(CC)C1CCN(c2ccc3nc(-c4cc5c(C)nc(C)cn5n4)cc(=O)n3c2)CC1 [compound 451, 7-[4-(diethylamino)piperidin-1-yl]-2-(4,6-dimethylpyrazolo[1,5-a]pyrazin-2-yl)-4H-pyrido[1,2-a]pyrimidin-4-one] |
| 0.1 to 0.5 | Cc1cn2cc(-c3cc(=O)n4cc(N5CCN[C@H](C)C5)ccc4n3)cc2c(C)n1 [compound 713, 2-(1,3-dimethylpyrrolo[1,2-a]pyrazin-7-yl)-7-[(3R)-3-methylpiperazin-1-yl]-4H-pyrido[1,2-a]pyrimidin-4-one] |
| 1 to 3 | Cc1cn2cc(-c3cc(=O)n4cc(N5CCN6CCC[C@H]6C5)ccc4n3)cc(F)c2n1 [compound 271, 2-(8-fluoro-2-methylimidazo[1,2-a]pyridin-6-yl)-7-[(8aS)-hexahydropyrrolo[1,2-a]pyrazin-2(1H)-yl]-4H-pyrido[1,2-a]pyrimidin-4-one] |
| 0.5 to 1 | CCc1nc(C)cn2nc(-c3cc(=O)n4cc(C5CCNCC5)cc(C)c4n3)cc12 [compound 771, 2-(4-ethyl-6-methylpyrazolo[1,5-a]pyrazin-2-yl)-9-methyl-7-(piperidin-4-yl)-4H-pyrido[1,2-a]pyrimidin-4-one] |
| 1 to 3 | Cc1cn2cc(-c3cc(=O)n4cc(C5CCN(CCO)CC5)ncc4n3)ccc2n1 [compound 581, 7-[1-(2-hydroxyethyl)piperidin-4-yl]-2-(2-methylimidazo[1,2-a]pyridin-6-yl)-4H-pyrazino[1,2-a]pyrimidin-4-one] |
| 1 to 3 | Cc1nc2cc(-c3cc(=O)n4cc(N5CCN[C@@H](C)C5)ccc4n3)ccc2s1 [compound 135, 2-(2-methyl-1,3-benzothiazol-5-yl)-7-[(3S)-3-methylpiperazin-1-yl]-4H-pyrido[1,2-a]pyrimidin-4-one] |
| 0.1 to 0.5 | CCN1CCC(c2cn3c(=O)cc(-c4cc5c(C)nc(C)cn5n4)nc3cn2)CC1 [compound 504, 2-(4,6-dimethylpyrazolo[1,5-a]pyrazin-2-yl)-7-(1-ethylpiperidin-4-yl)-4H-pyrazino[1,2-a]pyrimidin-4-one] |

| Compound | IC50 [µM] |
| --- | --- |
| Cn1ncc2cc(-c3cc(=O)n4cc(C5=CCNCC5)ncc4n3)ccc21 [compound 505, 2-(1-methyl-1H-indazol-5-yl)-7-(1,2,3,6-tetrahydropyridin-4-yl)-4H-pyrazino[1,2-a]pyrimidin-4-one] | 3 to 33 |
| CCc1nc(C)cn2nc(-c3cc(=O)n4cc(C5=CCNCC5)cc(C)c4n3)cc12 [compound 773, 2-(4-ethyl-6-methylpyrazolo[1,5-a]pyrazin-2-yl)-9-methyl-7-(1,2,3,6-tetrahydropyridin-4-yl)-4H-pyrido[1,2-a]pyrimidin-4-one] | 3 to 33 |
| CN(C)c1ccc(-c2cc(=O)n3cc(C4=CCNCC4)ccc3n2)cn1 [compound 444, 2-[6-(dimethylamino)pyridin-3-yl]-7-(1,2,3,6-tetrahydropyridin-4-yl)-4H-pyrido[1,2-a]pyrimidin-4-one] | 3 to 33 |
| Cn1cc2cc(-c3cc(=O)n4cc(C5=CCNCC5)ccc4n3)ccc2n1 [compound 474, 2-(2-methyl-2H-indazol-5-yl)-7-(1,2,3,6-tetrahydropyridin-4-yl)-4H-pyrido[1,2-a]pyrimidin-4-one] | 0.5 to 1 |
| Cc1cc(N(C)C2CC(C)(C)NC(C)(C)C2)cn2c(=O)cc(-c3ccc4nn(C)cc4c3)nc12 [compound 853, 9-methyl-2-(2-methyl-2H-indazol-5-yl)-7-[methyl(2,2,6,6-tetramethylpiperidin-4-yl)amino]-4H-pyrido[1,2-a]pyrimidin-4-one] | 3 to 33 |
| Cc1nc2ccc(-c3cc(=O)n4cc(C5=CCNCC5)ccc4n3)cc2o1 [compound 302, 2-(2-methyl-1,3-benzoxazol-6-yl)-7-(1,2,3,6-tetrahydropyridin-4-yl)-4H-pyrido[1,2-a]pyrimidin-4-one] | 0.1 to 0.5 |

Reference: patent publication US11382918B2, “Methods for treating Huntington's Disease” (PTC Therapeutics, Inc., priority 2017, dated 2022)
